Data as given in patent US20100055192A1, “MICRONIZED PARTICLES OF LOW-DOSAGE STRENGTH ACTIVE AGENTS FOR POWDER FORMULATIONS FOR INHALATION” (Chiesi Farmaceutici S.p.A., priority 2007, published 2010).
Counter-ions that a name gives are not always drawn.

Key:
Assay type in all cases: physicochemical
[1] = Specific Surface Area by BET nitrogen adsorption (Coulter SA3100); conditions: mean of three determinations
Protocol: (§1) The particle size was determined by laser diffraction using a Malvern apparatus. The parameters taken into consideration were the VD in microns of 5%, 10%, 50%, and 90% of the particles expressed as d(v,0.05), d(v,0.1), d(v, 0.5), and d(v, 0.9), respectively, which correspond to the mass diameter assuming a size independent density for the particles. The Specific Surface Area (SSA) was determined by BET nitrogen adsorption using a Coulter SA3100 apparatus as a mean of three determinations.
(§2) Different batches of formoterol fumarate dihydrate were milled in a jet mill apparatus at different operating conditions in order to obtain different particle size distribution. The micronized batches were characterised in terms of particle size distribution and Specific Surface Area as reported in Example 1.

[2] = Particle size distribution by laser diffraction (Malvern apparatus); conditions: for Particle size d (v, 0.05): volume diameter of 5% of the particles; for Particle size d (v, 0.1): volume diameter of 10% of the particles; for Particle size d (v, 0.5): volume diameter of 50% of the particles; for Particle size d (v, 0.9): volume diameter of 90% of the particles
Protocol: as §1, §2

[3] = Agglomerates after mixing with a carrier of coarser particles, detected by Near Infrared Spectrophotometer with microscope; conditions: batch added to carrier of coarser particles; suitable time of mixing, or ten hours of mixing where agglomerates remained
Protocol: (§3) The various batches were then added to a carrier made of coarser particles.
as §3

SMILES | SSA (Specific Surface Area) [1] | Particle size d (v, 0.05) [2] | Particle size d (v, 0.1) [2] | Particle size d (v, 0.5) [2] | Particle size d (v, 0.9) [2] | Agglomerates of the active ingredient in the formulation after mixing [3]
COc1ccc(C[C@@H](C)NC[C@H](O)c2ccc(O)c3[nH]c(=O)ccc23)cc1 [carmoterol hydrochloride batch 1] | 9.70 m^2/g | 0.70 μm | 0.94 μm | 2.16 μm | 4.34 μm | no agglomerates were observed
COc1ccc(C[C@@H](C)NC[C@H](O)c2ccc(O)c3[nH]c(=O)ccc23)cc1 [carmoterol hydrochloride batch 2] | 9.68 m^2/g | 0.67 μm | 0.85 μm | 2.03 μm | 4.31 μm | no agglomerates were observed
COc1ccc(C[C@@H](C)NC[C@H](O)c2ccc(O)c3[nH]c(=O)ccc23)cc1 [carmoterol hydrochloride batch 3] | 18.11 m^2/g | 0.58 μm | 0.59 μm | 1.32 μm | 2.75 μm | agglomerates where still present
COc1ccc(C[C@@H](C)NC[C@H](O)c2ccc(O)c3[nH]c(=O)ccc23)cc1 [carmoterol hydrochloride batch 4] | 10.74 m^2/g | 0.55 μm | 0.68 μm | 1.58 μm | 3.40 μm | agglomerates where still present
COc1ccc(C[C@@H](C)NC[C@H](O)c2ccc(O)c3[nH]c(=O)ccc23)cc1 [carmoterol hydrochloride batch 5] | 11.91 m^2/g | 0.48 μm | 0.70 μm | 1.45 μm | 2.75 μm | agglomerates where still present
COc1ccc(C[C@@H](C)NC[C@H](O)c2ccc(O)c3[nH]c(=O)ccc23)cc1 [carmoterol hydrochloride batch 6] | 11.80 m^2/g | 0.59 μm | 0.73 μm | 1.61 μm | 3.25 μm | 
